Experimental findings from patent US20190284192A1, “NITROGENOUS MACROCYCLIC COMPOUND, PREPARATION METHOD THEREFOR, PHARMACEUTICAL COMPOSITION AND APPLICATION THEREOF” (LUOXIN PHARMACEUTICAL (SHANGHAI) CO., LTD., priority 2016, published 2019) are described below.

In one data set the target is T1, BRD4 (BD1) (Homo sapiens, UniProt O60885).
T1 construct: Each member comprises two tandem bromodomains (BD1 and BD2) for recognizing the acetylated lysine residues
Briefly: BRD4 (BD1) bromodomain binding, HTRF. The note with it: 2 h incubation at r.t. For orientation: TR-FRET usually uses a lanthanide donor and a delayed reading to cut background.

The target in a further data set is T2, BRD4 (BD2) (Homo sapiens, UniProt O60885).
T2 construct: Each member comprises two tandem bromodomains (BD1 and BD2) for recognizing the acetylated lysine residues
Briefly: BRD4 (BD2) bromodomain binding, HTRF. The note with it: 2 h incubation at r.t.

For the next data set, the system named is MV-4-11 cells. Briefly: Inhibitory effect on MV-4-11 cells (CellTiter-Glo). In kind it is cell-based. The note with it: Homo sapiens, read-out: MV-4-11. (In general: In ATP-based viability assays light output follows the ATP content of the culture.)
The test system of another data set is SU-DHL-6 cells. Briefly: Inhibitory effect on SU-DHL-6 cells (CellTiter-Glo). In kind it is cell-based. The note with it: Homo sapiens, read-out: SU-DHL-6. The method, then:
Determinations of the inhibition of the compounds from the above embodiments against SU-DHL-6 cells, the detailed operation steps are as followed:
The 1st Day: Seed the Cells on the Plate
1. The cells were verified that they were in good conditions by observation under microscope;
2. The cells were transferred to a centrifuge tubes, after centrifuged at 1000 rpm for 5 min, the supernatant was discarded;
3. The complete substrate (1640+10% FBS) was added, then blown and patted into single cell suspension, counted by Vi-cell cytometer, the cell suspension was adjusted to desired cell density by the complete medium.
4. The cells were inoculated into a 96 well plate, the cell number was 12000/well at 100 μL per well, 100 μL complete medium was added into the black control;
5. 37° C., 5% CO2 culture overnight.
The 2nd Day: Addition of the Drugs
1. 1000× Compound Plate Preparation
1.1. The test compound was prepared into 10 mM working solution by using DMSO. Then the STS was prepared into 2 mM working solution by using DMSO.
1.2. In the round bottom 96 wells plate, the column 2 of row A to H was added into 60 μL 10 mM test compound (or STS) working solution, columns 3-11 were added into 40 μL DMSO, 20 μL drug solution was pipetted from the column 2 to the column 3, blown and patted for a homogeneous mixture; then 20 μL solution was pipetted from the column 3 to the column 4, blown and patted for a homogeneous mixture, sequently, the drug was diluted by 3 times, 10 concentrations in total. The columns 1 and 12 were supplemented with 40 μL of DMSO.
2. Intermediate plate preparation
A sterile V-bottom 96 deep well plate was used and in each well, 495 μL FBS-free PRMI 1640 medium was added, then 5 μL of the diluted compound (or DMSO) in the 1000× compound plate was pipetted into corresponding position of the V-bottom 96 well plate, blown and patted evenly.
3.1. The cell plate was taken out from the incubator and was observed under microscope. The diluted compound or DMSO in the intermediate plate was added into the cell plate, 11 μL each well.
3.2. The cell was continued to be cultured at 37° C., 5% CO2 for 72 hours.
The 5th Day: CellTiter-Glo Detection of the Cell Activity
1. The CellTiter-Glo buffer and the reaction substrate were taken out from the refrigerator, after balanced to r.t., the buffer was poured into a brown bottle containing the substrate, the bottle was upside down to have the substrate powder sufficientaly dissolved.
2. The cell was observed under microscope; the cell plate was balanced to r.t.
3. The prepared CellTiter-Glo was added into the 96 well plate, at 100 μL/well.
4. The cell plate was placed on a shaker for 10 min, followed by standing at r.t. for 10 min.
5. A white seal film was attached to the bottom of the well plate, and the chemiluminescence signal of each well was detected by the Enspire microplate detector.
6. XLfit was used for data processing. Inhibition rate %=(d-c)/(d-b)×100, while d is the signal value of the DMSO treated group, c is the signal value of the compound treated group, b is signal value of the blank control that only containing medium and DMSO without cells. The data was fitted using the f (x)205[fit=(A+((B−A)/(1+((C/x)^∧D))))] equation in the XLfit software.

Data set [1] is described as follows: Metabolic stability in human liver microsomes. The note with it: human liver microsomes 0.5 mg/mL, NADPH, 37° C.; for CLint scaled at 1 µM: pH 7.4, read-out: HLM_CLint. In kind it is in vitro ADME. As to the method:
(§1) Determinations of the metabolic stability of the compound from the above embodiments, the detailed operation steps are as followed:
(§2) 1. Preparation of buffer C:
(§3) Buffer A: 1.0 L of 0.1 M potassium dihydrogen phosphate buffer (containing 1.0 mM EDTA);
(§4) Buffer B: 1.0 L of 0.1 M dipotassium hydrogen phosphate buffer (containing 1.0 mM EDTA);
(§5) Buffer C: 500 mL Buffer B was titrated with Buffer A to pH 7.4.
(§6) 2. 10 mM stock solution preparation:
(§7) 10 mM test compound: A certain amount of the test compound was weighed and dissolved in DMSO.
(§8) 10 mM control: 5.455 mg of ketanserin dissolved in 1 mL DMSO.
(§9) 3. Preparation of the drug solution:
(§10) 500 μM solution: 5 μL of 10 mM stock solution (see step 2) was added into 95 μL ACN;
(§11) 1.5 μM dosing solution (dissolved in liver microsome solution):
(§12) 18.75 μL of 20 mg/mL liver microsomes was added into 479.75 μL of Buffer C, then 1.5 μL of 500 μM solution was added and mixed gently by shaking.
(§13) 4. Preparation of 6 mM NADPH solution:
(§14) 15 mg NADPH was weighted, then added into 3 mL of buffer C to prepare a 6 mM NADPH solution.
(§15) 5. 30 µL of 1.5 μM dosing solution (see step 3) was added into the wells of the 96-well plate set at different time points (0 minutes, 5 minutes, 15 minutes, 30 minutes, 45 minutes), number of dulplicate sample is 2.
(§16) 6. Preparation of a 0 minutes sample: 135 μL ACN (with internal standard) was added to the 0 minutes well, followed by 15 µL of 6 mM NADPH solution.
(§17) 7. The 96-well plate containing 1.5 μM dosing solution and NADPH solution were preheated in a 37° C. water bath for 5 minutes.
(§18) 8. The 15 µL of 6 mM NADPH solution preheated was added into the wells set to 5 minutes, 15 minutes, 30 minutes, 45 minutes, then the reaction was initiated and started counting the time.
(§19) 10. The sample was vortexed for 10 min, and then centrifuged for 15 minutes on a centrifuge (Thermo Multifuge×3R) using 5594×g.
(§20) 11. 50 μL of the supernatant was taken from the centrifuged sample, transferred to a 96-well sample plate to which 100 μL of ultrapure water had already been added, mixed, and finally sent to LC-MS/MS for analysis.
(§21) Half time (T1/2)=0.693/K (K is the rate constant obtained by linear regression of the logarithm of the concentration as vertical coordinates and the culturing time as the abscissa)
(§22) 2. According to the equation formula bellow, Excel was used to plot the compound content versus reaction time, as well as half life calculation (min)
(§23) Y=(Y0−Plateau)×e^(−K*X)+Plateau
(§24) Y0 represents the compound content at 0 minutes; Y represents the compound content; X represents the time point; K represents degration rate constant of the compound; Plateau represents the lowest possible content of the compound (defined herein as 0).
A general note: Liver microsomes are vesicles of endoplasmic reticulum, rich in cytochrome P450 enzymes.

Data set [2] in a line: Metabolic stability in mouse liver microsomes. In kind it is in vitro ADME. The note with it: mouse liver microsomes 0.5 mg/mL, NADPH, 37° C.; for CLint scaled at 1 µM: pH 7.4, read-out: MLM_CLint. The method, then:
as §1, §2, §3, §4, §5, §6, §7, §8, §9, §10, §11, §12, §13, §14, §15, §16, §17, §18, §19, §20, §21, §22, §23, §24

For data set [3], the system named is MV-4-11 subcutaneous xenograft tumor. Briefly: Anti-tumor efficacy in vivo, MV-4-11 subcutaneous xenograft model. Also noted: species or system BALB/c nude mice. The note with it: intragastric QD*14.
Procedure: According to the growth of the cells, the treatment was passaged twice a week. When the cells are in the exponential growth phase, the cells are collected, counted, and inoculated.
Experimental protocol: 0.2 mL of cell suspension containing about 5×10^MV-4-11 cells (cell suspended in IMDM medium and added with 50% Matrigel) was inoculated subcutaneously into the right back of each mouse. Group administration was initiated when the average tumor volume reached approximately 136.94 mm^3 (day 15 post inoculation). Grouping method: Animals were weighed before dosing and tumor volume was measured. Grouping designed based on tumor volume.
The experimental indicator is to investigate whether tumor growth can be inhibited, delayed or cured. Tumor diameters were measured with vernier calipers three times a week. The formula for calculating tumor volume is: V=0.5×a×b^2, a and b represent the long and short diameters of the tumor, respectively. The antitumor effect of the compound was evaluated by T/C (%). T/C %=TRTV/CRTV×100% (TRTV: treatment group RTV; CRTV: negative comparative group RTV). The relative tumor volume RTV is calculated as RTV=Vt/V1. Where V1 is the measured tumor volume at the time of group administration (i.e., Day 1), and Vt is the tumor volume at each measurement.
The tumor volume and tumor size were analysed by statistical software. GraphPad Prism software was used for analyzation, p<0.05 is considered to have significant difference, p<0.01 is considered to have extremely significant difference.
Two-way Anova Bonferroni post-test is used to compare the tumor volume difference between the control group and the treatment group.
The nature of data set [4]: Body weight of MV-4-11 tumor-bearing mice during treatment. In kind it is in vivo. The note with it: intragastric QD*14, ABBV-075 3, GSK762 15, 4009 10 mg/kg. The method, then: The preparation and any revision of this experimental protocol are carried out in accordance with the evaluation criteria of the “Institute for Animal Care and Use (IACUC)” of Shanghai Chempartner Chemical Research Co., Ltd. The use and welfare of laboratory animals are carried out in accordance with the provisions of the Association for Assessment and Accreditation of Laboratory Animal Care (AAALAC). Animals are monitored daily for health and death. Routine examinations include observations of the effects of the test substance and the drug on the daily behavior of the animal such as behavioral activities, intake of water and feeds, weight change (three weights measured weekly), appearance signs or other anormal circumstance. The number of animal deaths and side effects in the group were recorded based on the number of animals in each group.

[5] abbreviates: MV4-11, 72 hours, CellTiter-Glo.

Where two headings read alike, the source gives them in different places.

As for `Cn1cc2c(c1C#N)CC(=O)N(c1ccc(F)cc1)c1ccc(CS(C)(=O)=O)cc1-2` [Compound 4003, 6-(4-Fluorophenyl)-2-methyl-9-(methylsulfonemethyl)-5-oxo-2,4,5,6-tetrahydrobenzo[b]pyrrolo[3,4-d]azepin-3-nitrile], the IC50 at BRD4 (BD1) turned out to be 148 nM; at BRD4 (BD2), 16 nM; with MV-4-11 cells (setting [5]) it was 1550 nM; in the data set with SU-DHL-6 cells (72 hours, CellTiter-Glo), 2040 nM.
In the case of `Cn1cc2c(c1C(N)=O)CCN(c1ccc(F)cc1)c1ncc(F)cc1-2` [Compound 4005, 9-fluoro-6-(4-fluorophenyl)-2-methyl-2,4,5,6-tetrahydropyrido[2,3-b]pyrrolo[3,4-d]azepin-3-carboxamide], the IC50 on BRD4 (BD1) is 163 nM; on BRD4 (BD2), 550 nM; in the data set with MV-4-11 cells (setting [5]) it was more than 10000 nM; with SU-DHL-6 cells (72 hours, CellTiter-Glo), more than 10000 nM.
In the case of `Cn1cc2c(c1C(N)=O)CCN(c1ccc(F)cc1)c1ccc(CS(C)(=O)=O)cc1-2` [Compound 4002, 6-(4-fluorophenyl)-2-methyl-9-(methylsulfonylmethyl)-2,4,5,6-tetrahydrobenzo[b]pyrrolo[3,4-d]azepin-3-carboxamide], the IC50 stood at 26 nM on BRD4 (BD1); 47 nM at BRD4 (BD2); 1120 nM with MV-4-11 cells (setting [5]); 1930 nM in the data set with SU-DHL-6 cells (72 hours, CellTiter-Glo). Besides, the HLM_T1/2 in data set [1] was 38.19 min. Further, the CLint scaled at 1 µM was 45.5 mL/min/kg in data set [1] and 233 mL/min/kg in data set [2]. Further, the MLM_T1/2 in data set [2] is listed as 23.42 min.
Turning to `CCS(=O)(=O)Cc1ccc2c(c1)-c1cn(C)c(=O)cc1CN=C2c1ccc(Cl)cc1` [Compound 4011, 7-(4-chlorophenyl)-10-((ethylsulfone)methyl)-2-methyl-2,5-dihydro-3H-benzo[c]pyrido[3,4-e]Azazale-3-ketone], the IC50 stood at 4 nM at BRD4 (BD1); 4 nM on BRD4 (BD2); 65 nM in the data set with MV-4-11 cells (setting [5]); 59 nM in the data set on SU-DHL-6 cells (72 hours, CellTiter-Glo). Moreover, the HLM_T1/2 in data set [1] was 1127.52 min. Besides, the CLint scaled at 1 µM amounted to 1.54 mL/min/kg in data set [1] and 5.16 mL/min/kg in data set [2]. The MLM_T1/2 in data set [2] was 1056.88 min.
Consider `Cn1cc2c(cc1=O)CN=C(c1ccc(F)cc1)c1ccc(CS(C)(=O)=O)cc1-2` [Compound 4007, 7-(4-Fluorophenyl)-2-methyl-10-(methylsulfonemethyl)-2H-benzo[c]pyrido[3,4-e]azepin-3(5H)-ketone], for which the IC50 on BRD4 (BD1) amounted to 6 nM; on BRD4 (BD2), 7 nM; in the data set with MV-4-11 cells (setting [5]), 118 nM; with SU-DHL-6 cells (72 hours, CellTiter-Glo), 253 nM. In addition, in data set [1], the HLM_T1/2 result was “∞”. The MLM_T1/2 in data set [2] came out at 815.54 min. For the same molecule, in data set [2], the CLint scaled at 1 µM amounted to 6.69 mL/min/kg.
As for `Cc1sc2c(c1C)C(c1ccc(Cl)cc1)=N[C@@H](CC(=O)OC(C)(C)C)c1nnc(C)n1-2` [(+)-JQ1, reference compound], the IC50 came out at 248 nM in the data set on MV-4-11 cells (MV4-11, 72 h) and 198 nM in the data set on SU-DHL-6 cells (SU-DHL-6, 72 h).
Take `CCNC(=O)C[C@@H]1N=C(c2ccc(Cl)cc2)c2cc(OC)ccc2-n2c(C)nnc21` [GSK762]: the “anti-tumor effect on the MV-4-11 cell xenograft tumor mouse model” value in data set [3] (ABBV-075 3 mg/kg, GSK762 15 mg/kg, 4009 10 mg/kg) is on record as “no significant anti-tumor effect”. For the same molecule, in data set [3] (ABBV-075 3, GSK762 15, 4009 10 mg/kg), the “Average tumor weight, 15th day of treatement” value amounted to 0.522 ± 0.11 g. Further, in data set [4] (relative body weight change vs Day 1), the “Average RCBW, Treatment end Day 15” value was determined as 5.07%. In data set [4] (x ± SEM), the “Average body weight, Treatment end Day 15” value was determined as 21.86 ± 0.38 g and the “Average body weight, Treatment start Day 1” value stood at 20.82 ± 0.40 g.
As to `Cn1cc2c(c1C(N)=O)CC(=O)N(c1ccc(F)cc1)c1ccc(CS(C)(=O)=O)cc1-2` [Compound 4001, 6-(4-fluorophenyl)-2-methyl-9-(methylsulfonemethyl)-5-oxo-2,4,5,6-tetrahydrobenzo[b]pyrrolo[3,4-d]azepin-3-carboxamide], the IC50 was found to be 124 nM on BRD4 (BD1); 25 nM on BRD4 (BD2); 1440 nM in the data set with MV-4-11 cells (setting [5]); 2000 nM in the data set with SU-DHL-6 cells (72 hours, CellTiter-Glo).
